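Five compound concentrations were applied to cells in 96-well plates for 48 hours; endpoints were derived by simple linear interpolation of the resulting dose-response curve. At the GI50, growth is halved. TGI: total growth inhibition.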

Test systems include M14 melanoma; LOX IMVI melanoma; HCT-116 colon; HS 578T breast; UACC-257 melanoma; SK-MEL-5 melanoma; MALME-3M melanoma; SNB-19 CNS.
Holding throughout (assay): inhibition of tumour cell growth, NCI panel, 48 h

With `NNc1nc(-c2ccccn2)nc2sc3c(c12)CCCCCC3`, the GI50 with M14 melanoma is 5.46 µM; with LOX IMVI melanoma it was 6.17 µM; in the experiment with HCT-116 colon, 3.53 µM; with HS 578T breast it was 11 µM; with UACC-257 melanoma it was 6.61 µM; with SK-MEL-5 melanoma, 3.16 µM. The TGI was 46.8 µM in the experiment with M14 melanoma; over 100 µM in the experiment with LOX IMVI melanoma; over 100 µM in the experiment on HCT-116 colon; over 100 µM in the experiment with HS 578T breast; 77.4 µM in the experiment on UACC-257 melanoma; 24.1 µM in the experiment on SK-MEL-5 melanoma.

`C[C@H]1[C@H](C)CC[C@]2(C(=O)O)CC[C@]3(C)C(=CC[C@@H]4[C@@]5(C)CC[C@H](OC(=O)/C=C\c6ccc(O)cc6)C(C)(C)[C@@H]5CC[C@]43C)[C@H]12`: the GI50 was 3.86 µM in the experiment on LOX IMVI melanoma; 1.53 µM with HCT-116 colon; 2.51 µM with MALME-3M melanoma; 3.1 µM with HS 578T breast; 10.5 µM in the experiment on SNB-19 CNS; 1.46 µM in the experiment on UACC-257 melanoma. Also, the GI50 in the experiment with SK-MEL-5 melanoma was 3.85 µM. In addition, the TGI in the experiment on LOX IMVI melanoma was 15.9 µM; with HCT-116 colon, 3.98 µM; in the experiment with MALME-3M melanoma, 13.2 µM; in the experiment on HS 578T breast, 22.6 µM; with SNB-19 CNS it was 31.1 µM; in the experiment on UACC-257 melanoma, 8.49 µM. In the experiment with SK-MEL-5 melanoma, this molecule displayed a TGI of 14.3 µM.

Consider `Cn1cc(-c2nc(-c3cn(C)c4ncccc34)cs2)c2cc(F)ccc21`, for which the GI50 in the experiment with M14 melanoma is 0.777 µM; with LOX IMVI melanoma it was 1.15 µM; in the experiment with HCT-116 colon, 0.775 µM; with HS 578T breast, 5.1 µM; with SNB-19 CNS, 2.89 µM; with UACC-257 melanoma it was 6.33 µM. The GI50 in the experiment with SK-MEL-5 melanoma is 0.847 µM. In addition, the TGI was 12.4 µM in the experiment with M14 melanoma; 5.69 µM with LOX IMVI melanoma; 41.2 µM in the experiment on HCT-116 colon; over 100 µM in the experiment with HS 578T breast; over 100 µM in the experiment on SNB-19 CNS; over 100 µM in the experiment with UACC-257 melanoma. For the same molecule, in the experiment with SK-MEL-5 melanoma, the TGI amounted to 3.37 µM.

With `Cc1ccc(C2CC(c3cccc(Nc4ccncc4)c3)=NN2c2ccc(Cl)cc2)cc1` (configuration not stated), the GI50 in the experiment on M14 melanoma is 1.73 µM; in the experiment on LOX IMVI melanoma, 1.62 µM; in the experiment with HCT-116 colon, 1.84 µM; in the experiment with MALME-3M melanoma it was 1.6 µM; in the experiment on SK-MEL-5 melanoma, 1.76 µM. Moreover, the TGI in the experiment with M14 melanoma was determined as 3.39 µM; in the experiment with LOX IMVI melanoma it was 2.97 µM; with HCT-116 colon it was 3.71 µM; in the experiment on MALME-3M melanoma it was 3.05 µM; in the experiment on SK-MEL-5 melanoma it was 3.16 µM.

Take `C#Cc1ccc(-n2c(/C=C/c3ccc4ccccc4n3)nc3ncccc3c2=O)cc1`: the GI50 was 0.169 µM in the experiment with LOX IMVI melanoma; 0.346 µM in the experiment with HCT-116 colon; 0.798 µM with MALME-3M melanoma; 0.436 µM in the experiment on UACC-257 melanoma; 0.246 µM in the experiment with SK-MEL-5 melanoma. Also, the TGI is 0.657 µM in the experiment on LOX IMVI melanoma; 1.2 µM in the experiment with HCT-116 colon; 2.35 µM in the experiment on MALME-3M melanoma; 1.92 µM in the experiment with UACC-257 melanoma; 0.683 µM in the experiment with SK-MEL-5 melanoma.

In the case of `Cn1c2ccccc2c(=S)c2cc(NC(=O)CCCCC(=O)Nc3ccc4c(c3)c(=S)c3ccccc3n4C)ccc21`, the TGI in the experiment with M14 melanoma, with LOX IMVI melanoma, in the experiment on HCT-116 colon, in the experiment on HS 578T breast, in the experiment with SNB-19 CNS and in the experiment with UACC-257 melanoma was over 100 µM in each case. The molecule further gave a TGI in the experiment on SK-MEL-5 melanoma of over 100 µM.

Take `COc1ccc(OC)c2c3c(ncc12)-c1cc2c(cc1C3)OCO2`: the GI50 in the experiment with M14 melanoma was 0.316 µM; with LOX IMVI melanoma, 0.104 µM; in the experiment on HCT-116 colon, 0.249 µM; with HS 578T breast, 7.01 µM; in the experiment on SNB-19 CNS, over 100 µM; with UACC-257 melanoma, 38.5 µM. Further, the GI50 in the experiment with SK-MEL-5 melanoma is 22.1 µM. The TGI with M14 melanoma is over 100 µM; with LOX IMVI melanoma, 1.85 µM; with HCT-116 colon it was over 100 µM; in the experiment with HS 578T breast, 62.1 µM; with SNB-19 CNS it was over 100 µM; with UACC-257 melanoma it was over 100 µM. This molecule gave a TGI with SK-MEL-5 melanoma of over 100 µM.

Consider `COc1cccc(-c2cc(NCc3ccc4c(c3)OCO4)nc(N)n2)c1`, for which the GI50 was 0.0479 µM in the experiment with M14 melanoma; 0.0773 µM with LOX IMVI melanoma; 0.0473 µM in the experiment on HCT-116 colon; 0.112 µM in the experiment with MALME-3M melanoma; 0.0505 µM with HS 578T breast; 0.143 µM in the experiment on SNB-19 CNS. Moreover, the GI50 in the experiment with SK-MEL-5 melanoma was 0.0432 µM. Moreover, the TGI was determined as 1.91 µM in the experiment with M14 melanoma; 19.4 µM in the experiment with LOX IMVI melanoma; 11.6 µM in the experiment on HCT-116 colon; 26.3 µM in the experiment on MALME-3M melanoma; 27.6 µM in the experiment on HS 578T breast; 45.4 µM in the experiment on SNB-19 CNS. In the experiment with SK-MEL-5 melanoma, this molecule came in with a TGI of 3.6 µM.

As for `C#CCOc1c(OC)cc(C(=O)/C(C)=C/c2cccc(N=[N+]=[N-])c2)cc1OC`, the GI50 was 0.178 µM with M14 melanoma; 0.642 µM in the experiment with LOX IMVI melanoma; 0.0468 µM in the experiment with HCT-116 colon; 0.25 µM in the experiment on HS 578T breast; 0.333 µM with SNB-19 CNS; 0.288 µM in the experiment on SK-MEL-5 melanoma. Moreover, the TGI with M14 melanoma was over 100 µM; in the experiment with LOX IMVI melanoma, over 100 µM; with HCT-116 colon, 10.8 µM; in the experiment with HS 578T breast, over 100 µM; with SNB-19 CNS, over 100 µM; in the experiment with SK-MEL-5 melanoma, 54.3 µM.

As for `COc1ccc2oc(-c3ccc(Cl)cc3)c(N3CCN(C)CC3)c2c1`, the GI50 was 1.95 µM in the experiment on M14 melanoma; 1.61 µM in the experiment with LOX IMVI melanoma; 1.98 µM in the experiment on HCT-116 colon; 1.71 µM with HS 578T breast; 1.97 µM in the experiment on SNB-19 CNS; 1.68 µM with UACC-257 melanoma. Besides, the GI50 in the experiment with SK-MEL-5 melanoma is 1.58 µM. The TGI was determined as 4.26 µM in the experiment with M14 melanoma; 3.07 µM in the experiment with LOX IMVI melanoma; 4.59 µM with HCT-116 colon; 3.86 µM with HS 578T breast; 5.18 µM with SNB-19 CNS; 3.43 µM in the experiment with UACC-257 melanoma. Also, in the experiment on SK-MEL-5 melanoma, the TGI came to 3.06 µM.

With `O=C(/C=C/c1ccc2c(c1)OCO2)c1ccccc(=O)c1O`, the TGI in the experiment on LOX IMVI melanoma is over 100 µM; in the experiment on HCT-116 colon it was over 100 µM; in the experiment on MALME-3M melanoma, 60 µM; with HS 578T breast it was over 100 µM; with SNB-19 CNS, 51.8 µM; in the experiment with UACC-257 melanoma it was 53.1 µM. In the experiment with SK-MEL-5 melanoma, this molecule gave a TGI of 23 µM.

Consider `CN(C)CCOc1cccc(NC2=C(Cl)C(=O)C(Nc3cccc(OCCN(C)C)c3)=C(Cl)C2=O)c1`, for which the GI50 in the experiment with M14 melanoma was 1.14 µM; with LOX IMVI melanoma, 0.191 µM; in the experiment with HCT-116 colon, 0.18 µM; in the experiment with MALME-3M melanoma it was 0.275 µM; with SNB-19 CNS, 1.72 µM; in the experiment on UACC-257 melanoma it was 0.765 µM. Moreover, the GI50 in the experiment on SK-MEL-5 melanoma was 0.792 µM. The TGI was 2.53 µM in the experiment on M14 melanoma; 0.407 µM in the experiment with LOX IMVI melanoma; 0.385 µM with HCT-116 colon; 0.827 µM with MALME-3M melanoma; 3.31 µM in the experiment with SNB-19 CNS; 2.03 µM in the experiment on UACC-257 melanoma. In the experiment on SK-MEL-5 melanoma, this molecule had a TGI of 2.04 µM.

Values taken from PubChem BioAssay (NCI).
